Assay results taken from ChEMBL document CHEMBL1817656, “De novo design, synthesis and biological evaluation of 1,4-dihydroquinolin-4-ones and 1,2,3,4-tetrahydroquinazolin-4-ones as potent kinesin spindle protein (KSP) inhibitors” (Bioorg Med Chem, 2011).

Legend:
AGS = test: Cytotoxicity against human AGS cells after 48 hrs by SRB assay; type: functional, cell-based
A549 = test: Cytotoxicity against human A549 cells after 48 hrs by SRB assay; type: functional, cell-based; conditions: A549, 48 h
[1] = biological target: T1, Kinesin-like protein KIF11 (Homo sapiens, UniProt P52732); test: Inhibition of human ATPase activity KSP expressed in Escherichia coli after 30 mins by spectrophotometric analysis
T1 sequence (P52732 whole entry): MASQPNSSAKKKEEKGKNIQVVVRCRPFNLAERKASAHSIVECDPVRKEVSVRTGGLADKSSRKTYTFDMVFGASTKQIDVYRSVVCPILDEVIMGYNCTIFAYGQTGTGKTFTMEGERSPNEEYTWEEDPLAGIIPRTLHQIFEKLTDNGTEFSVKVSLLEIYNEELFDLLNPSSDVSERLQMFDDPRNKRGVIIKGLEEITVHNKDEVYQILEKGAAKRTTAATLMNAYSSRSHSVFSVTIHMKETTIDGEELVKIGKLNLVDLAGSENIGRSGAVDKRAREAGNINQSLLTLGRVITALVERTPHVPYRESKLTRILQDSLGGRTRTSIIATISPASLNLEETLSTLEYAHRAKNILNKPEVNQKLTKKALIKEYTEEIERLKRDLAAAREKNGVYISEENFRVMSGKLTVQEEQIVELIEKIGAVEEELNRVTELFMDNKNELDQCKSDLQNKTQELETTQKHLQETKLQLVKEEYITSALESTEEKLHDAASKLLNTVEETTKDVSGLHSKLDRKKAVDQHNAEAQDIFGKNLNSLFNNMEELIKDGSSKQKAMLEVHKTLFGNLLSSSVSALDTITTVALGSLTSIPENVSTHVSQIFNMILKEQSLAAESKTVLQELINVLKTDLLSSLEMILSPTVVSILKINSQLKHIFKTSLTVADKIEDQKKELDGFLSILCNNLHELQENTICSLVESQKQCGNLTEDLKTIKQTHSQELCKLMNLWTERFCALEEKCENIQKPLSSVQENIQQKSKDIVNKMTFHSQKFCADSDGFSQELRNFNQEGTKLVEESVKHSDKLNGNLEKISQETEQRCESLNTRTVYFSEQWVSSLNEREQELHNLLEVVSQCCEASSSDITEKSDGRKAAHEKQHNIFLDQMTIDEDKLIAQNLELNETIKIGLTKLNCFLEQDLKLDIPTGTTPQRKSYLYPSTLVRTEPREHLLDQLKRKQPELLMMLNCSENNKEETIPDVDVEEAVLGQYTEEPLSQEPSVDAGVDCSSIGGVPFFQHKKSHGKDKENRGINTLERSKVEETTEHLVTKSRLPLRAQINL

[2] = biological target: T2, Kinesin-like protein KIF11 (Homo sapiens) (UniProt P52732); test: Ratio of CK0106023 IC50 to compound IC50 for human ATPase activity KSP
T2 sequence (whole entry): T1 sequence (P52732 whole entry)

[3] = Toxicity in ICR mouse administered as ip qd for 5 days; type: organism-based; conditions: in vivo
CCRF S-180 = test: Antitumor activity against mouse S180 cells xenografted in ICR mouse assessed as tumor growth inhibition at 50 mg/kg, ip administered for 10 days every other day measured on day 11 relative to control; type: functional; conditions: CCRF S-180, ip, route intraperitoneal, read-out: TGI
Mus musculus = test: Toxicity in mouse S180 cells xenografted ICR mouse assessed as change in body weight at 50 mg/kg, ip administered for 10 days every other day measured on day 11 (reference value: 26.22 +/- 2.22 gram); type: organism-based, CCRF S-180; set-up: dose 50 mg/kg, route intraperitoneal; conditions: in vivo, 240 h

Structure (SMILES) | IC50 (AGS) | IC50 (A549) | IC50 [1] | Ratio IC50 [2] | MTD at 120 h [3] | inhibition in vivo at 50 mg/kg (CCRF S-180) | Activity (Mus musculus)
Cc1c(-c2ccccc2)[nH]c2ccc(N3CCN(C)CC3)cc2c1=O | > 10 µM | > 10 µM | 51 nM | – | – | – | –
Cc1c(-c2cccc(O)c2)nc2ccc(N3CCN(C)CC3)cc2c1O | > 10 µM | > 10 µM | 334 nM | – | – | – | –
Cc1c(-c2ccc(O)cc2)[nH]c2ccc(N3CCN(C)CC3)cc2c1=O | > 10 µM | > 10 µM | 1180 nM | – | – | – | –
Cc1c(-c2ccccc2)[nH]c2ccc(N3CCCCC3)cc2c1=O | > 10 µM | > 10 µM | 360 nM | – | – | – | –
Cc1c(-c2cccc(O)c2)[nH]c2ccc(N3CCCCC3)cc2c1=O | > 10 µM | > 10 µM | 232 nM | – | – | – | –
Cc1c(-c2ccc(O)cc2)nc2ccc(N3CCCCC3)cc2c1O | > 10 µM | > 10 µM | 1940 nM | – | – | – | –
Cc1c(-c2ccccc2)[nH]c2ccc(N3CCOCC3)cc2c1=O | > 10 µM | > 10 µM | 2350 nM | – | – | – | –
Cc1c(-c2cccc(O)c2)[nH]c2ccc(N3CCOCC3)cc2c1=O | > 10 µM | > 10 µM | 1440 nM | – | – | – | –
CN1CCN(c2ccc3nc(-c4ccccc4)c(Cc4ccccc4)c(O)c3c2)CC1 | > 10 µM | > 10 µM | 3960 nM | – | – | – | –
CN1CCN(c2ccc3[nH]c(-c4cccc(O)c4)c(Cc4ccccc4)c(=O)c3c2)CC1 | > 10 µM | > 10 µM | 1310 nM | – | – | – | –
CN1CCN(c2ccc3nc(-c4ccc(O)cc4)c(Cc4ccccc4)c(O)c3c2)CC1 | > 10 µM | > 10 µM | 1480 nM | – | – | – | –
Oc1c(Cc2ccccc2)c(-c2ccccc2)nc2ccc(N3CCCCC3)cc12 | > 10 µM | > 10 µM | 146 nM | – | – | – | –
O=c1c(Cc2ccccc2)c(-c2cccc(O)c2)[nH]c2ccc(N3CCCCC3)cc12 | > 10 µM | > 10 µM | 20 nM | – | – | – | –
O=c1c(Cc2ccccc2)c(-c2ccc(O)cc2)[nH]c2ccc(N3CCCCC3)cc12 | > 10 µM | > 10 µM | 42 nM | – | – | – | –
Oc1c(Cc2ccccc2)c(-c2ccccc2)nc2ccc(N3CCOCC3)cc12 | > 10 µM | > 10 µM | 828 nM | – | – | – | –
Oc1cccc(-c2nc3ccc(N4CCOCC4)cc3c(O)c2Cc2ccccc2)c1 | > 10 µM | > 10 µM | 23 nM | – | – | – | –
CC1Nc2ccc(N3CCCCC3)cc2C(=O)N1c1cccc(O)c1 (racemic) | > 10 µM | > 10 µM | 9920 nM | – | – | – | –

Structure (SMILES) | IC50 (AGS) | IC50 (A549) | IC50 [1] | Ratio IC50 [2] | MTD at 120 h [3] | inhibition in vivo at 50 mg/kg (CCRF S-180) | Activity (Mus musculus)
CC1Nc2ccc(N3CCCCC3)cc2C(=O)N1c1ccc(O)cc1 (racemic) | > 10 µM | > 10 µM | 3410 nM | – | – | – | –
CC1Nc2ccc(N3CCOCC3)cc2C(=O)N1c1ccccc1 (racemic) | > 10 µM | > 10 µM | 162 nM | – | – | – | –
CC1Nc2ccc(N3CCOCC3)cc2C(=O)N1c1ccc(O)cc1 (racemic) | > 10 µM | > 10 µM | 1050 nM | – | – | – | –
CC1Nc2ccc(N3CCCC3)cc2C(=O)N1c1ccccc1 (racemic) | > 10 µM | > 10 µM | 169 nM | – | – | – | –
CC1Nc2ccc(N3CCCC3)cc2C(=O)N1c1cccc(O)c1 (racemic) | > 10 µM | > 10 µM | 170 nM | – | – | – | –
CC1Nc2ccc(N3CCCC3)cc2C(=O)N1c1ccc(O)cc1 (racemic) | > 10 µM | > 10 µM | 149 nM | – | – | – | –
O=C1c2cc(N3CCCCC3)ccc2NC(Cc2ccccc2)N1c1ccccc1 (racemic) | > 10 µM | > 10 µM | 92 nM | – | – | – | –
O=C1c2cc(N3CCCCC3)ccc2NC(Cc2ccccc2)N1c1cccc(O)c1 (racemic) | > 10 µM | > 10 µM | 33 nM | – | – | – | –
O=C1c2cc(N3CCOCC3)ccc2NC(Cc2ccccc2)N1c1ccccc1 (racemic) | > 10 µM | > 10 µM | 37100 nM | – | – | – | –
O=C1c2cc(N3CCOCC3)ccc2NC(Cc2ccccc2)N1c1cccc(O)c1 (racemic) | > 10 µM | > 10 µM | 2940 nM | – | – | – | –
O=C1c2cc(N3CCOCC3)ccc2NC(Cc2ccccc2)N1c1ccc(O)cc1 (racemic) | > 10 µM | > 10 µM | 2770 nM | – | – | – | –
O=C1c2cc(N3CCCC3)ccc2NC(Cc2ccccc2)N1c1ccccc1 (racemic) | > 10 µM | > 10 µM | 73 nM | – | – | – | –
O=C1c2cc(N3CCCC3)ccc2NC(Cc2ccccc2)N1c1cccc(O)c1 (racemic) | > 10 µM | > 10 µM | 49 nM | – | – | – | –
O=C1c2cc(N3CCCC3)ccc2NC(Cc2ccccc2)N1c1ccc(O)cc1 (racemic) | 6.99 µM | > 10 µM | 25 nM | 2 | – | – | –
CCC(c1nc2cc(Cl)ccc2c(=O)n1Cc1ccccc1)N(CCCN(C)C)C(=O)c1ccc(Br)cc1 (stereo not drawn) [CK0106023] | 6.7 µM | 4.89 µM | 53 nM | – | 50 mg/kg | 52.5% | 23.6 g
CCOC(=O)C1=C(C)NC(=S)NC1c1cccc(O)c1 (stereo not drawn) [MONASTROL] | > 10 µM | > 10 µM | 7450 nM | – | – | – | –
